Measured values as given in article PMC11151938 (Nature, 2024).

Assays:
[1] = system: Ripk3−/− MEFs; test: RIPK1 kinase-driven cell death in Ripk3−/− MEFs; assay type: cell-based, mouse; settings: TNFα + TAK1 inhibitor
[2] = biological target: T1, RIPK3 (Homo sapiens, UniProt Q9Y572); test: In vitro RIPK3 kinase assay; assay type: biochemical
[3] = system: necroptosis in cells; test: Necroptosis blockade in cells; assay type: cell-based; settings: read-out: blocking necroptosis in cells IC50
[4] = system: primary MEFs infected with PR8; test: IAV-induced necroptosis in primary MEFs; assay type: cell-based, mouse; settings: PR8 MOI 2, zVAD 50 μM
[5] = biological target: T1, RIPK3; settings: cited from earlier work
[6] = system: RIPK3; settings: cited from earlier work
[7] = system: panel of 90 non-mutant human kinases; settings: FDA-approved TKIs, comparison values; cited from earlier work
[8] = system: influenza; settings: mice and humans ref 36, 37; cited from earlier work

T1 sequence (Q9Y572 1-313): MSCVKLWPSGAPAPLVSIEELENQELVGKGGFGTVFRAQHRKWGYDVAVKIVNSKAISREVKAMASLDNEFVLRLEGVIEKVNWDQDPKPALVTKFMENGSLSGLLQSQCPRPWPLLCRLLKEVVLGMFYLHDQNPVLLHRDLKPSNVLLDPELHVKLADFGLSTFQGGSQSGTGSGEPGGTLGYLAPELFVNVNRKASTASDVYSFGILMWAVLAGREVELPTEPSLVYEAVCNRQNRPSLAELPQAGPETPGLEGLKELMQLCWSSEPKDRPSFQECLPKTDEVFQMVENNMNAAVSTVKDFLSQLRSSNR

## N#Cc1cc(N2CCC(C(=O)N3N=CC[C@H]3c3cc(F)cc(F)c3)CC2)ncn1 [GSK’547]
[1]
  activity against RIPK1 kinase-driven cell death: able to block such death

## CCN(CC)CCOc1ccc(Nc2ncc3cc(-c4c(Cl)cccc4Cl)c(=O)n(C)c3n2)cc1 [PD166285]
[2]
  IC50: 1.08 µM
[3]
  IC50: 2.88 µM

## CCCS(=O)(=O)Nc1cc(-c2cc(-c3ccc(N4CCNCC4)cc3)cnc2N)cc(F)c1OC [CSLP37]
[4]
  IAV-triggered necroptosis: neither the ABL inhibitor imatinib (Gleevec) nor the selective RIPK2 inhibitor CSLP37[32] blocked IAV-triggered necroptosis

## CNC(=O)c1ccc2c(c1)ncn2-c1ccc(CC(=O)OC(C)(C)C)cc1 [GSK’840]
[5]
  activity against recombinant RIPK3 in vitro: potent activity
[6]
  activity in cells: unexpectedly modest activity

## CNC(=O)c1cc(Oc2ccc(NC(=O)Nc3ccc(Cl)c(C(F)(F)F)c3)cc2)ccn1 [Sorafenib]
[7]
  S(35) selectivity score: 0.22

## Cc1ccc(NC(=O)c2ccc(CN3CCN(C)CC3)cc2)cc1Nc1nccc(-c2cccnc2)n1 [imatinib]
[4]
  IAV-triggered necroptosis: neither the ABL inhibitor imatinib (Gleevec) nor the selective RIPK2 inhibitor CSLP37[32] blocked IAV-triggered necroptosis

## Cc1cc(-c2cnc(N)c3c(-c4ccc5scnc5c4)csc23)n(C)n1 [GSK’843]
[5]
  activity against recombinant RIPK3 in vitro: potent activity
[6]
  activity in cells: unexpectedly modest activity

## CCOC(=O)C1=C[C@@H](OC(CC)CC)[C@H](NC(C)=O)[C@@H](N)C1 [oseltamivir]
[8]
  time of administration after infection beyond which therapeutic benefit is lost: more than 48 h

## CC(C)S(=O)(=O)c1ccc2nccc(Nc3ccc4scnc4c3)c2c1 [GSK’872]
[6]
  activity in cells: unexpectedly modest activity

## Cc1nc(Nc2ncc(C(=O)Nc3c(C)cccc3Cl)s2)cc(N2CCN(CCO)CC2)n1 [Dasatinib]
[7]
  S(35) selectivity score: 0.28
